Entries after “also recorded” stand apart in the source; their conditions may differ.
Legend:
MDA-MB-231 cells = experiment: Soft agar colonization of MDA-MB-231 cells after antisense transfection; format: cell-based
Protocol: Monolayers of MDA-MB-231 cells were transfected with 2 μg/ml of EphA2 antisense or inverse antisense (IAS) oligonucleotides at 37° C. for 24 hours. […] The membranes were stripped and reprobed with paxillin antibodies as a loading control (B). The relative mobility of molecular mass standards is shown on the left of panels A and B. (C) MDA-MB-231 cell monolayers, treated with antisense oligonucleotides as detailed above, were suspended in soft agar for 7 days before microscopic analysis of colony formation. […] Results are reported as colonies per high-powered field (HPF).
An antisense oligonucleotide-based approach that decreased EphA2 expression in tumor cells independent of EphA2 activation was developed. […] Inverted antisense oligonucleotides (5′-[…]-3′; SEQ ID NO:109) provided a control. The cells were transfected with oligonucleotides (2 μg/ml) using Lipofectamine PLUS Reagent (Life Technologies, Inc.) according to the manufacturer's protocol. Twenty-four hours post-transfection, the cells were divided. Half of the cells were seeded into soft agar, and the remaining cells were extracted and subjected to Western blot analysis.
MDA-MB-231 cells were suspended in soft agar. […] Colony formation was scored microscopically using an Olympus CK-3 inverted phase-contrast microscope outfitted with a 40× objective. Clusters containing at least three cells were scored as a positive. […]

EphA2 = EphA2 expression in MDA-MB-231 cells after antisense transfection (Western blot); format: cell-based; conditions: 2 μg/ml oligonucleotide, 24 hours
MCF-7^EphA2 cells [1] = experiment: Soft agar colonization of MCF-7^EphA2 cells; format: cell-based; conditions: TAM 1 μM, EA2 10 μg/ml
Protocol: (B) MCF-7 (circles) or MCF-7^EphA2 cells (squares) were implanted into the mammary fatpad (n=15 mice per group) in the presence of supplemental estrogen.
MCF-7^EPhA2 cells were incubated in the presence of 3 μg/ml of EA2 for the time indicated prior to sample extraction and Western blot analyses with an EphA2-specific antibody (D7). (B) The membrane was stripped and re-probed with a β-catenin-specific antibody as a loading control.
(§1) Growth assays were conducted as follows. MCF-7^neo (control cells) or MCF7^EphA2 cells were seeded in 96-well plates. […] Colony formation in soft agar was performed as previously described (Zelinski et al., 2001, Cancer Res. 61: 2301-6) and scored microscopically, defining clusters of at least three cells as a positive. The data represent the average of ten separate high-power microscopic fields from each sample and representative of at least three separate experiments. Error bars represent the standard error of the mean of at least three different experiments as determined using Microsoft Excel software.
Growth MCF-7^EphA2 cells which had decreased EphA2 expression levels was assayed in soft agar.

control MCF-7 cells = experiment: Soft agar colonization of control MCF-7 cells; format: cell-based; conditions: TAM 1 μM; EA2 10 μg/ml; FIG. 13C
Protocol: as §1, with “software. […]” for “software.”

MCF-7^EphA2 cells [2] = experiment: Tumorigenic potential of MCF-7^EphA2 vs control cells in mammary fat pad of athymic mice under tamoxifen; format: in vivo; conditions: tamoxifen 1 mg oral gavage 6 days per week, from 17 days post-implantation; supplemental estrogen; FIG. 11B
Protocol: (B) MCF-7 (circles) or MCF-7^EphA2 cells (squares) were implanted into the mammary fatpad (n=15 mice per group) in the presence of supplemental estrogen. […] Tumor volume of tamoxifen treated (black circles and squares) and saline treated (white circles and squares) animals was measured at the indicated time.
Consistent with increased soft agar colonization, orthotopically implanted MCF-7^EphA2 cells formed larger, more rapidly growing tumors in vivo. Six to eight week-old athymic (nu/nu) mice were purchased from Harlan Sprague Dawley (Indianapolis, Ind.). When indicated, a controlled release estradiol pellet (0.72 mg 17β-estradiol, 60-day formulation) was injected subcutaneously via a sterile 14-gauge trocar 24 hours prior to tumor implantation and pellets were replaced every 60 days for those experiments spanning>60 days in duration. 1×10^6 MCF-7^neo or MCF7^EphA2 cells were injected into the mammary fat pad under direct visualization.

5′-CCAGCAGTACCGCTTCCTTGCCCTGCGGCCG-3′ (all phosphorothioate, sugars by position and methylation of C not given here; listed as Homo Sapiens) [EphA2 antisense oligonucleotides, phosphorothioate-modified antisense oligonucleotides unique to EphA2]
Decrease of soft agar colonization vs matched controls (MDA-MB-231 cells; 2 μg/ml oligonucleotide, 7 days in soft agar, FIG. 14C): at least 60%
Colony formation in soft agar vs inverted antisense control (MDA-MB-231 cells; P<0.002): significantly impaired
EphA2 expression / protein level after oligonucleotide transfection (EphA2): selectively decreased EphA2 expression in MDA-MB-231 cells; also recorded: decreases EphA2 protein levels

5′-GCCGCGTCCCGTTCCTTCACCATGACGACC-3′ (listed as DNA, chemistry not given here; listed as Homo sapiens) [IAS, inverted antisense control oligonucleotide, reference compound]
EphA2 expression / protein level after oligonucleotide transfection (EphA2): did not

C[C@]12CC[C@@H]3c4ccc(O)cc4CC[C@H]3[C@@H]1CC[C@@H]2O [estradiol, 17β-estradiol, reference compound]
Soft agar colonization response / tamoxifen sensitivity, MCF-7^EphA2 cells (MCF-7^EphA2 cells [1]; 1 μM 17β-estradiol, FIGS. 11A, 13C (11A also MCF-7)): overcame the inhibitory effects of tamoxifen

tamoxifen [reference compound]
Inhibition / decrease of soft agar colonization, MCF-7^EphA2 cells (MCF-7^EphA2 cells [1]; 14 days): 25%
Soft agar colonization response, control MCF-7 cells (control MCF-7 cells): sensitive to tamoxifen
Sensitivity of tumorigenic potential to tamoxifen, MCF-7^EphA2 vs control (MCF-7^neo) (MCF-7^EphA2 cells [2]): less sensitive to tamoxifen; also recorded: lower inhibitory effects of tamoxifen on MCF-7^EphA2 relative to control cells

— patent US20050153923A1, “Targeted drug delivery using EphA2 or EphA4 binding moieties” (priority 2003, published 2005)
